# Assay results: US20250002467A1, “DESIGN, SYNTHESIS AND MECHANISMS OF ANTICANCER ACTIVITY OF NEW ACETYLATED 5-AMINOSALICYLATE-THIAZOLINONE HYBRID DERIVATIVES” (University of Sharjah, priority 2023, published 2025)
# Entries after “also recorded” stand apart in the source; their conditions may differ.
# How the values were obtained:
# MCF7 = assay: SRB cytotoxicity assay, MCF7; format: cell-based; settings: for IC50: MCF7, SRB, mean ± SEM
# Source text: (§1) Eight different cancer cell lines were acquired from the Radiobiology and Experimental Radio Oncology lab, University Medical Center, Hamburg University, Hamburg, Germany. MCF7, MDA-MB-231 (breast cancer), and A549 (lung cancer) cells were maintained in RPMI medium while HCT116 (colon cancer), HepG2 (liver cancer), U87, U373 (glioblastoma), and HeLa (cervical cancer) were maintained in DMEM supplemented with 10% FBS and 1% penicillin/streptomycin (Sigma Aldrich, Missouri, USA). Normal human fibroblast (F180) cells were maintained in DMEM supplemented with 15% FBS. Normal human mammary epithelial cell line (HME1) were maintained in DMEM/F-12 medium supplemented with 10% FBS. All incubations were done at 37° C. in a humidified atmosphere of 5% CO2. All cell lines were authenticated by short tandem repeat (STR) profiling. The CDK4 knockout cells (provided by Dr. Samrein Ahmed, University of Sharjah, United Arab Emirates) were generated by CRISPR-CAS9 technology and were maintained in DMEM supplemented with 10% FBS.
# (§2) The cytotoxic effects of HH32 and HH33 compounds were evaluated at various concentrations ranging from 0.0001 to 100 μM by sulphrhodamine-B (SRB) assay as described previously. The anti-proliferative activity was expressed as growth inhibitory concentration (IC50) values, which were calculated by the sigmoidal dose-response curve fitting method using Graph pad prism 6 software (GraphPad Software, San Diego, CA, USA).
# HCT-116 = assay: SRB cytotoxicity assay, HCT-116; format: cell-based
# Source text: as §1, §2
# HeLa = assay: SRB cytotoxicity assay, HeLa; format: cell-based
# Source text: as §1, §2
# A549 = assay: SRB cytotoxicity assay, A549; format: cell-based; settings: for IC50: A549, SRB, mean ± SEM
# Source text: as §1, §2
# HepG2 = assay: SRB cytotoxicity assay, HepG2; format: cell-based
# Source text: as §1, §2
# MDA-MB-231 = assay: SRB cytotoxicity assay, MDA-MB-231; format: cell-based
# Source text: as §1, §2
# U87 = assay: SRB cytotoxicity assay, U87; format: cell-based; settings: for IC50: U87, SRB, mean ± SEM
# Source text: as §1, §2
# U373 = assay: SRB cytotoxicity assay, U373; format: cell-based
# Source text: as §1, §2
# F-180 = assay: SRB cytotoxicity assay, normal fibroblast F-180; format: cell-based, human; settings: F-180 normal fibroblast, mean ± SEM
# Source text: as §1, §2
# [1] = tested on: MCF7, HCT-116 and A549 cells; assay: Neutral comet assay; format: cell-based; settings: for level of DNA damage (tail moment): 0.5 and 1 μM, 24 hours, three cell lines
# Experimental: MCF7, HCT-116 and A549 cells were treated with […] of HH32 or HH33 compounds for 24 hours and control cells were treated with vehicle (DMSO). A group of cells was treated with doxorubicin as a reference drug using the same treatment conditions. Comet assay was performed in neutral condition to detect DNA double-strand breaks using comet assay kit (Trevigen Inc., Maryland, USA) according to the manufacturer's instructions. The tail moment, which reflect the amount of DNA damage in each nucleus, was calculated in at least 50 cells using OpenComet software.
# [2] = tested on: MCF7, HCT-116, HeLa and A549 cells; assay: Annexin V/PI apoptosis analysis; format: cell-based; settings: for early apoptotic cell population (Annexin V+/PI-): 24 and 48 hours
# Experimental: The cells were collected at 12, 24 and 48 hours after treatment with […] of HH32 and HH33 compounds. The detection of early and late apoptotic cell death was done using FITC Annexin V Apoptosis Detection Kit (Becton Dickenson, California, USA) according to the manufacturer's protocol. The data were analyzed by BD Accuri C6 flow cytometer (Becton Dickenson, New Jersey, USA).
# MCF7 cells = assay: Metabolic analysis by GC-MS; format: cell-based
# Experimental: The release of different metabolites following HH32 and HH33 treatment on MCF7 cells was detected using Gas Chromatography-Mass Spectrometry (GC-MS) (Shimadzu, Kyoto, Japan) as was described previously. GC-MS analysis was performed using a QP2010 gas chromatography-mass spectrometer (GC-2010 coupled with a GC-MS QP-2010 Ultra) equipped with an auto-sampler (AOC-20i+s) from Shimadzu (Tokyo, Japan), using Rtx-5 ms column (30 m length×0.25 mm inner diameter x 0.25 μm film thickness; Restek, Bellefonte, PA, USA). Helium (99.9% purity) was used as the carrier gas with the column flow rate of 1 mL/min. Data collection and analysis were performed using MSD Enhanced Chemstation software (Shimadzu, Kyoto, Japan). GC total ion chromatograms (TIC) and fragmentation patterns of the compound were identified using the NIST/EPA/NIH Mass Spectral Library (NIST 14).
# Preprocessing and data analysis were performed using an in-house R script. Only compounds registered in Human Metabolome Database (HMDB 4.0) were considered for further analysis. Compounds with more than 70% of missing values were considered unreliable and therefore excluded. Probabilistic Quotient Normalization was used to normalize data due to dilution effects in the extraction procedure. Missing metabolite measurements were imputed using the k-nearest neighbor algorithm with k—3. […] To account for multiple testing, a false discovery rate (FDR) of <15% was applied to reduce the identification of false positives. FDRs were calculated using the q conversion algorithm in multiple comparisons. Principal component analysis (PCA) was used to visualize the metabolomic data. Data were mean-centered and scaled to unit variance before PCA.
Compound,Selectivity index (MCF7; F180 versus MCF7),Selectivity index (MCF7; HME1 versus MCF7),IC50 (MCF7),Selectivity index (HCT-116; F180 versus HCT116),Selectivity index (HCT-116; HME1 versus HCT116),Selectivity index (HeLa; F180 versus HeLa),Selectivity index (HeLa; HME1 versus HeLa),IC50 (A549),Selectivity index (A549; F180 versus A549),Selectivity index (A549; HME1 versus A549),Selectivity index (HepG2; F180 versus HepG2),Selectivity index (HepG2; HME1 versus HepG2),Selectivity index (MDA-MB-231; F180 versus MDA-MB-231),Selectivity index (MDA-MB-231; HME1 versus MDA-MB-231),Selectivity index (U87; F180 versus U87),Selectivity index (U87; HME1 versus U87),IC50 (U87),Selectivity index (U373; F180 versus U373),Selectivity index (U373; HME1 versus U373),IC50 (F-180),further results
"COC(=O)c1cc(NC2=NC(=O)C(=Cc3ccc(C)cc3)S2)ccc1OC(C)=O [HH32, Methyl 2-acetoxy-5-[(5-(4-methylbenzylidene)-4 (H)-oxo-1,3-thiazol-2-yl)-amino]benzoate]",3.88,7.8,3.44 ± 0.32 µM,11.4,22.9,22.2,44.65,6.17 ± 0.38 µM,2.16,4.3,5.36,10.8,0.87,1.7,2.04,4.1,6.53 ± 0.09 µM,0.45,0.9,13.3 ± 0.38 µM,"IC50 (HCT-116; HCT-116, SRB, mean ± SEM): 1.17 ± 0.46 µM; IC50 (HeLa; HeLa, SRB, mean ± SEM): 0.6 ± 0.47 µM; IC50 (HepG2; HepG2, SRB, mean ± SEM): 2.49 ± 0.11 µM; IC50 (MDA-MB-231; MDA-MB-231, SRB, mean ± SEM): 15.35 ± 0.08 µM; IC50 (U373; U373, SRB, mean ± SEM): 29.38 ± 0.08 µM; level of DNA damage (tail moment) [1]: increased; late apoptotic/dead cells (Annexin V+/PI+) ([2]; HCT-116 cells): elevated; early apoptotic cell population (Annexin V+/PI-) ([2]; four cell lines): no sign of early apoptosis induction; Guanosine levels (MCF7 cells; vs untreated cells): altered"
"COC(=O)c1cc(NC2=NC(=O)C(=Cc3ccc(N(C)C)cc3)S2)ccc1OC(C)=O [HH33, Methyl 2-acetoxy-5-[(5-(4-dimethylaminobenzylidene)-4 (H)-oxo-1,3-thiazol-2-yl)-amino]benzoate]",4.89,11.4,0.81 ± 0.34 µM,13.48,31.9,16.3,38.5,2.93 ± 0.83 µM,1.3,3.2,10.3,24,0.99,2.3,3.8,9,1.03 ± 0.11 µM,0.17,0.4,3.91 ± 0.43 µM,"potency compared with doxorubicin (HCT-116; HCT-116 cells): nearby equipotent; activity compared with doxorubicin (HeLa; HeLa cells): superior activity than doxorubicin; level of DNA double strand breaks compared with doxorubicin ([1]; 1 μM, same concentration, three tested cell lines): higher than doxorubicin; level of DNA damage (tail moment) [1]: increased; comet length compared with HH32-treated cells ([1]; MCF7 and HCT-116 cells): markedly higher; late apoptotic/dead cells (Annexin V+/PI+) ([2]; HCT-116 cells): elevated; early apoptotic cell population (Annexin V+/PI-) ([2]; four cell lines): increased; late apoptotic/dead cells (Annexin V+/PI+) ([2]; four cell lines, with increasing concentration): increased; increase of palmitic acid (MCF7 cells): 20%; reduction of 1-Monopalmitin level (MCF7 cells; compared to control cells): 4.5 fold; level of 1-Monopalmitin (MCF7 cells; vs untreated cells): significant decreased; level of Adenosine (MCF7 cells; vs untreated cells): significant decreased; also recorded: significant reduction; level of Decanoic Acid (MCF7 cells; vs untreated cells): significant decreased; also recorded: reduction"
